“And” between values parts separate entries of the source, which are not always exact repeats. Equal values may be shown once.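 48-hour exposure; five concentrations; linearly interpolated endpoints. GI50 = concentration required for 50% inhibition of growth. TGI is the concentration that stops growth completely.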
Tests used:
Experiment in all cases: NCI anticancer screen, dose series, 48 h
HCT-116 colon = tested on: HCT-116 colon
IGROV1 ovarian = tested on: IGROV1 ovarian
786-0 renal = tested on: 786-0 renal
K-562 leukemia = tested on: K-562 leukemia
UO-31 renal = tested on: UO-31 renal
MCF7 breast = tested on: MCF7 breast
M14 melanoma = tested on: M14 melanoma
PC-3 prostate = tested on: PC-3 prostate
SK-MEL-2 melanoma = tested on: SK-MEL-2 melanoma
SF-539 CNS = tested on: SF-539 CNS

SMILES	GI50 (HCT-116 colon) [µM]	TGI (HCT-116 colon) [µM]	GI50 (IGROV1 ovarian) [µM]	TGI (IGROV1 ovarian) [µM]	GI50 (786-0 renal) [µM]	TGI (786-0 renal) [µM]	GI50 (K-562 leukemia)	TGI (K-562 leukemia) [µM]	GI50 (UO-31 renal) [µM]	TGI (UO-31 renal) [µM]	GI50 (MCF7 breast) [µM]	TGI (MCF7 breast) [µM]	GI50 (M14 melanoma) [µM]	TGI (M14 melanoma) [µM]	GI50 (PC-3 prostate) [µM]	TGI (PC-3 prostate) [µM]	GI50 (SK-MEL-2 melanoma) [µM]	TGI (SK-MEL-2 melanoma) [µM]	GI50 (SF-539 CNS) [µM]	TGI (SF-539 CNS) [µM]
O=C(O)C1(Cc2cccc(Nc3nccs3)n2)CCC(Oc2cccc(Cl)c2F)CC1 (stereo not drawn)	0.64	30.5	15.9	53.1	15.5	40.3	0.468 µM	> 56.5	16.3	79.8	0.329	50.5	2.96	30.2	17.4	84.3	17.6	36.4	6.73	24.4
COc1cnc2c(c1)C(=O)c1c-2n(CCCN2CCCC2)c(=O)c2cc(F)ccc12	0.153	0.663	0.363	3.34	0.257	1.11	0.263 µM	1.55	0.152	1.04	0.0482	3.88	0.392	1.95	0.42	12.8	1.39	10.4	0.36	1.48
CCCCCCCC(=O)SCC/C=C/[C@@H]1CC(=O)NCc2nc(co2)C2=N[C@@](C)(CS2)C(=O)N[C@@H](C(C)C)C(=O)O1	0.0126	1.14	0.0114	0.163	0.0456	> 50	0.0398 µM	> 50	0.043	0.487	0.0311	> 50	0.0205	> 50	0.0142	> 50	0.0132	0.331	0.0182	> 50
N[C@@H]1CCCN(c2c(/C=C3\SC(=O)NC3=O)cccc2-c2ccccc2)C1	13.1	26.9	17.2	35.1	15.4	29.8	11.7 µM	54.2	12.7	27.3	11.4	27.1	11.1	25.8	10.2	25.2	15.2	30.3	8.09	22.2
COc1ccc(-c2cc(-c3cc(OC)c(OC)c(OC)c3)c(C#N)c(N3CCOCC3)n2)cc1O	3.36	> 83.1	19	> 100	51.2	> 100	2.47 µM	> 24.1	11.1	> 100	3.2	> 100	10.1	> 100	3.6	> 100	13.5	> 100	2.52	12.5
CCCCCCCCCCCCOC1C(CNC(=O)C2OC3OC(C)(C)OC3C2NC(=O)CN2CCCCCC2)OC2OC(C)(C)OC21 (stereo not drawn)	4.06	12.8	5.03	15.2	10.4	23.4	3.43 µM	10.9	6.22	18	3.7	14.3	1.79	3.47	4.57	15.8	5.69	12	3.54	8.58
COc1ccc2c(c1)[n+](=O)c(C(=O)/C=C/c1cc(OC)c(OC)c(OC)c1)c(C)n2[O-]	16.9	65.5	20.7	42	12.8	30.7	> 100 µM	> 100	28	78.6	18	88.4	23.3	> 100	27.3	> 100	33.7	> 100	14.4	29.7
COc1ccc(-c2cc(=O)c3c(O)cc(C)cc3o2)cc1OC		> 100		> 100		> 100		> 100		> 100		> 100		> 100		> 100		> 100		> 100
CCN1C(=O)N(c2ccccc2)C2NN=c3s/c(=C4\C(=O)N(C(C)C)c5ccccc54)c(=O)n3C21 (stereo not drawn)	2.18	8.24	1.55	> 100	1.95	8.64	0.518 µM	> 100	2.35	> 100	0.483	> 100	0.979	> 35.6	1.45	> 77.3	5.99	> 100	0.736	2.24
Nc1nc(N)c2nc(CNc3ccc(C(=O)NC(CCCNC(=O)c4ccccc4C(=O)O)C(=O)O)cc3)cnc2n1 (stereo not drawn)	0.00028	> 100	0.0249	> 100	0.00054	> 100	< 0.0242 µM and 0.000381 µM	> 100	0.00532	> 100	0.00363	> 100	0.0226	> 100		> 100	> 100	> 100	0.00346	> 100
C#Cc1cccc(Nc2nc3ccc([N+](=O)[O-])cc3nc2Nc2cccc(C#C)c2)c1	0.214	0.715	0.354	1.3	0.226	0.73	0.216 µM	0.7	0.321	1.14	0.266	1.07	0.199	0.495	0.22	1.17	0.26	0.742	0.247	0.738
C[C@H]1C(Oc2ccc(O)cc2)OC2OC3(C)CCC4[C@H](C)CCC1C24OO3 (stereo partly drawn)	8.56	25	16.7	32.5	10.7	27.2	> 42 µM	> 100	11	26.2	12.6	32.5	16.1	34.3	0.251	14.8	7.1	23	16.3	33
C=C(C)[C@@H]1CC[C@]2(COC3CCCCO3)CC[C@]3(C)[C@H](CC[C@@H]4[C@@]5(C)C=C(C=O)C(=O)C(C)(C)[C@@H]5CC[C@]43C)[C@@H]12 (stereo partly drawn)	1.31	2.59	2.13	4.56	1.65	3.09	1.64 µM	5.98	1.36	2.74	1.52	3.43	1.34	3.01	1.1	2.71	1.56	3.26	1.21	2.58
CCCCCC/C=C\CCCCCCCCCC1=CC(=O)C=C(OC)C1=O		12.2		3.86		17				14		15.3		16.2		11		18.3		6.74
CCOC(=O)Nc1ccc(-c2nc(-c3cccc(OC)c3)c(-c3ccnc(Br)c3)[nH]2)cc1			2.69	9.03	2.16	> 100	2.76 µM	> 100	2.19	7.75	2.13	7.18	2.4	7.5	2.52	8.9	2.58	6.69	1.76	4.56
Cc1nc(N)sc1C(=O)Nc1cc(C(=O)NCCCN(C)C)n(C)c1	> 100	> 100	> 100	> 100	> 100	> 100	> 100 µM	> 100	> 100	> 100	> 100	> 100			> 100	> 100	> 100	> 100	> 100	> 100
Nc1nnc(Cn2c(-c3ccccc3)nc3ccc(Br)cc3c2=O)s1	13.6	50.3	18.3	> 100	58.7	> 100			> 100	> 100	> 100	> 100	49	> 100	38.2	> 100	> 100	> 100	32.9	> 100
CC/C(C)=C1\OC(=O)C(C)C(O)C(Cc2cccnc2)NC(=O)C(NC(=O)c2ncccc2O)C(C)OC1=O (stereo not drawn)		> 100		> 100		> 100		> 100				> 100		> 100		> 100		> 100		> 100
COc1ccc(-c2c(-c3cc(OC)c4c(c3)OCO4)noc2N)cc1	0.0438	19.5	0.093	> 100	0.0845	24.1	0.0193 µM	> 100	0.463	35.5	0.028	28.5			0.0436	60.1	0.0324	21.5	0.0339	11.7
COC1=Nc2ccccc2S(=O)(=O)C=C1		3.46		28.1		10.1				12.5		12.3		21.4		28.7		35.8		33.3
